The text below walks through data of patent US9309298B2, “Anti-bacterial polypeptides and pathogen specific synthetic antibodies” (priority 2011, dated 2016).

Bridge positions count the residues as written; N and C are the ends. Square brackets hold non-standard residues; d marks the D form. Ends that are not written are not given here. I, II: the chains in the order shown. * marks the point of attachment. StBu = CC(C)(C)S*

The test system of one data set is P. aeruginosa. The class given is cell-based.
In the next data set the test system is S. mutans. Format: cell-based.
A further data set relates to Staphylococcus aureus. Nature of the data set: Mutant library in vitro inhibition activity, S. aureus. The class given is cell-based. The settings on record: relative growth after 18 hours of co-incubation. The procedure:
(§1) A library of 340 mutants of original lytic peptide (killing domain in synbody) was synthesized with single amino acid substitutions. Mutants along with original peptide as positive control were tested in vitro for inhibition activity against S. aureus and Pseudomonas aeruginosa. […] Ratio reflect the improvement in activity as “Mutant[Relative growth]/Orignal[Relative growth].

Data set [1] relates to S. aureus. Briefly: Solution inhibition assay, S. aureus. The class given is cell-based. The settings on record: negative control synbody. On the procedure: The advantage of the synbody “DR-RW” over the single peptides can be noticed in the range 10-25 uM.
The next data set has as its system human cells. Format: cell-based. The source says: FIG. 2. Graph of cytoxicity data of a composition of the invention in human tissue culture studies.
(§2) GAL80 synbody was used as a negative control with no activity against S. aureus. […] Synbody was abbreviated as “SB”.

The test system of data set [2] is S. aureus. The class given is cell-based.
A short description of data set [3]: In vivo characterization: immune response and acute toxicity in mice. More on the design: species or system CD1 mice.
From the text: FIG. 3. Graph of immune response cytoxicity data of a composition of the invention in CD1 mice.
as §2

For the next data set, the system named is B. subtilis. Format: cell-based.
Another data set concerns Pseudomonas aeruginosa. Nature of the data set: Mutant library in vitro inhibition activity, Pseudomonas aeruginosa. The settings on record: relative growth after 18 hours of co-incubation. Format: cell-based. On the procedure:
as §1

As for DRIFHKMQHKPYKIKKRGSC, the “Avg MIC ± SD, PA” value with P. aeruginosa was >100 µM. Further, the “Avg MIC ± SD, SM” value with S. mutans is >100 µM.

In the case of FWRRHKHFKRPHRKHKR [Mut 14], the “ratio, Mutant[Relative growth]/Orignal[Relative growth]” value with Staphylococcus aureus is listed as 1.653.

As for “GAL80 synbody: synbody used as a negative control with no activity against S. aureus (peptide 1 GTEKGTSGWLKTGSC; peptide 2 EGEWTEGKLSLRGSC)”, in the data set on S. aureus [1], the “Activity against S. aureus” value is listed as “no activity”.

“I: DRIFHKMQHKPYKIKKRGSGGGKC(StBu)-NH2 / II: RWRRHKHFKRPHRKHKRGSG (amide I:23-II:C) [Synbody]”: in the data set with P. aeruginosa, the “Avg MIC ± SD, PA” value was 22 ± 1.8 µM. Moreover, the Cytotoxic activity entry with human cells is given as “no cytotoxic activity”. Besides, in the data set on S. aureus [2], the “Avg MIC ± SD, SA” value amounted to 14 ± 0.8 µM. Further, the Acute toxicity result in [3] (500 ug dose) was “no immune response or acute toxicity”. The Immune response entry in data set [3] (500 ug dose, FIG. 3) is reported as “no immune response”. The “Level of IgG, PBS versus synbody injected mice” value in data set [3] (FIG. 3) was “no difference detected”. In addition, the “Avg MIC ± SD, SM” value in the data set with S. mutans is >100 µM. For the same substance, in the data set with B. subtilis, the “Avg MIC ± SD, BS” value was found to be 14 ± 1.1 µM.

Take LWRRHKHFKRPHRKHKR [Mut 11]: in the data set on Staphylococcus aureus, the “ratio, Mutant[Relative growth]/Orignal[Relative growth]” value is 1.58.

On to PWRRHKHFKRPHRKHKR [Mut 15], for which the “ratio, Mutant[Relative growth]/Orignal[Relative growth]” value in the data set with Staphylococcus aureus was 1.658.

With RLRRHKHFKRPHRKHKR [Mut 31], the “ratio, Mutant[Relative growth]/Orignal[Relative growth]” value with Staphylococcus aureus was determined as 1.633.

Regarding RRRRHKHFKRPHRKHKR [Mut 22], the “ratio, Mutant[Relative growth]/Orignal[Relative growth]” value in the data set with Staphylococcus aureus came out at 6.1; in the data set on Pseudomonas aeruginosa, 2.073.

For RWRFHKHFKRPHRKHKR [Mut 74], the “ratio, Mutant[Relative growth]/Orignal[Relative growth]” value in the data set with Pseudomonas aeruginosa turned out to be 1.017.

RWRRAKHFKRPHRKHKR [Mut 81]: the “ratio, Mutant[Relative growth]/Orignal[Relative growth]” value in the data set on Staphylococcus aureus was 1.525.

As to RWRRFKHFKRPHRKHKR [Mut 94], the “ratio, Mutant[Relative growth]/Orignal[Relative growth]” value with Pseudomonas aeruginosa amounted to 1.211.

In the case of RWRRHFHFKRPHRKHKR [Mut 114], the “ratio, Mutant[Relative growth]/Orignal[Relative growth]” value with Pseudomonas aeruginosa stood at 10.95.

Turning to RWRRHGHFKRPHRKHKR [Mut 108], the “ratio, Mutant[Relative growth]/Orignal[Relative growth]” value in the data set on Pseudomonas aeruginosa is listed as 1.191.

As for RWRRHHHFKRPHRKHKR [Mut 109], the “ratio, Mutant[Relative growth]/Orignal[Relative growth]” value in the data set on Pseudomonas aeruginosa was determined as 1.395.

RWRRHIHFKRPHRKHKR [Mut 110]: the “ratio, Mutant[Relative growth]/Orignal[Relative growth]” value in the data set with Pseudomonas aeruginosa is on record as 4.387.

Take RWRRHKAFKRPHRKHKR [Mut 121]: the “ratio, Mutant[Relative growth]/Orignal[Relative growth]” value in the data set with Pseudomonas aeruginosa is 2.297.

RWRRHKHFKRDHRKHKR [Mut 204]: in the data set with Pseudomonas aeruginosa, the “ratio, Mutant[Relative growth]/Orignal[Relative growth]” value is given as 2.107.

Consider RWRRHKHFKRFHRKHKR [Mut 214], for which the “ratio, Mutant[Relative growth]/Orignal[Relative growth]” value in the data set with Pseudomonas aeruginosa was found to be 1.134.

Turning to RWRRHKHFKRMHRKHKR [Mut 213], the “ratio, Mutant[Relative growth]/Orignal[Relative growth]” value in the data set on Pseudomonas aeruginosa is on record as 1.185.

Turning to RWRRHKHFKRPHRKHFR [Mut 314], in the data set with Staphylococcus aureus, the “ratio, Mutant[Relative growth]/Orignal[Relative growth]” value amounted to 1.497.

Consider RWRRHKHFKRPHRKHKF [Mut 334], for which, in the data set on Staphylococcus aureus, the “ratio, Mutant[Relative growth]/Orignal[Relative growth]” value is 2.37.

With RWRRHKHFKRPHRKHKK [Mut 332], in the data set with Staphylococcus aureus, the “ratio, Mutant[Relative growth]/Orignal[Relative growth]” value is reported as 2.438.

Turning to RWRRHKHFKRPHRKHKRGSC, the “Avg MIC ± SD, PA” value in the data set with P. aeruginosa was determined as 27 ± 2.3 µM. Further, the “Avg MIC ± SD, SA” value with S. aureus [2] turned out to be 28 ± 1.5 µM. Further, in the data set with S. mutans, the “Avg MIC ± SD, SM” value was >100 µM. For the same substance, the “Avg MIC ± SD, BS” value in the data set with B. subtilis was determined as 20 ± 0.3 µM.

Take RWRRHKHFKRPHRKTKR [Mut 297]: in the data set with Staphylococcus aureus, the “ratio, Mutant[Relative growth]/Orignal[Relative growth]” value amounted to 2.339.

For RWRRHKHFKRPHRKVKR [Mut 300], the “ratio, Mutant[Relative growth]/Orignal[Relative growth]” value in the data set on Staphylococcus aureus came out at 1.453.

Regarding RWRRHKHFKRPYRKHKR [Mut 239], in the data set on Staphylococcus aureus, the “ratio, Mutant[Relative growth]/Orignal[Relative growth]” value amounted to 2.12.

For the substance RWRRHKHFKRRHRKHKR [Mut 202], in the data set on Pseudomonas aeruginosa, the “ratio, Mutant[Relative growth]/Orignal[Relative growth]” value is on record as 1.3565.

For RWRRHKHFRRPHRKHKR [Mut 162], in the data set with Staphylococcus aureus, the “ratio, Mutant[Relative growth]/Orignal[Relative growth]” value is recorded as 2.125.

Turning to RWRRHKHKKRPHRKHKR [Mut 152], in the data set on Staphylococcus aureus, the “ratio, Mutant[Relative growth]/Orignal[Relative growth]” value stood at 2.049.

For the substance RWRRHKHLKRPHRKHKR [Mut 151], the “ratio, Mutant[Relative growth]/Orignal[Relative growth]” value with Staphylococcus aureus is listed as 1.312.

Take RWRRHKHMKRPHRKHKR [Mut 153]: the “ratio, Mutant[Relative growth]/Orignal[Relative growth]” value in the data set with Staphylococcus aureus amounted to 2.293.

Take RWRRHKHPKRPHRKHKR [Mut 155]: the “ratio, Mutant[Relative growth]/Orignal[Relative growth]” value in the data set on Staphylococcus aureus was 2.359.

Consider RWRRHKRFKRPHRKHKR [Mut 122], for which the entries for the “ratio, Mutant[Relative growth]/Orignal[Relative growth]” value in the data set with Staphylococcus aureus and in the data set on Pseudomonas aeruginosa were 17.45 and 3.121, respectively.

For the substance RWRRHKVFKRPHRKHKR [Mut 140], the “ratio, Mutant[Relative growth]/Orignal[Relative growth]” value in the data set on Staphylococcus aureus turned out to be 1.658.

Consider RWRRHKWFKRPHRKHKR [Mut 138], for which the “ratio, Mutant[Relative growth]/Orignal[Relative growth]” value in the data set with Pseudomonas aeruginosa was 1.315.

Turning to RWRRHKYFKRPHRKHKR [Mut 139], the “ratio, Mutant[Relative growth]/Orignal[Relative growth]” value in the data set with Staphylococcus aureus stood at 2.136; with Pseudomonas aeruginosa, 1.164.

In the case of “RWRRHKd-KFKRPHRKHKR (RWRRHK[dK]FKRPHRKHKR) [Mut 125]”, the “ratio, Mutant[Relative growth]/Orignal[Relative growth]” value in the data set on Staphylococcus aureus came to 1.593.

As to RWRRHLHFKRPHRKHKR [Mut 111], the “ratio, Mutant[Relative growth]/Orignal[Relative growth]” value in the data set on Pseudomonas aeruginosa turned out to be 1.71.

On to RWRRHRHFKRPHRKHKR [Mut 102], for which, in the data set with Pseudomonas aeruginosa, the “ratio, Mutant[Relative growth]/Orignal[Relative growth]” value is recorded as 1.077.

Turning to RWRRHVHFKRPHRKHKR [Mut 120], the “ratio, Mutant[Relative growth]/Orignal[Relative growth]” value in the data set on Pseudomonas aeruginosa was found to be 3.684.

Regarding RWRRIKHFKRPHRKHKR [Mut 90], the “ratio, Mutant[Relative growth]/Orignal[Relative growth]” value in the data set on Staphylococcus aureus came out at 1.747.

On to RWRRMKHFKRPHRKHKR [Mut 93], for which the “ratio, Mutant[Relative growth]/Orignal[Relative growth]” value in the data set on Pseudomonas aeruginosa is 1.035.

As for RWRRNKHFKRPHRKHKR [Mut 83], in the data set on Staphylococcus aureus, the “ratio, Mutant[Relative growth]/Orignal[Relative growth]” value stood at 13.15.

Take RWRRPKHFKRPHRKHKR [Mut 95]: in the data set on Staphylococcus aureus, the “ratio, Mutant[Relative growth]/Orignal[Relative growth]” value is 9.077.

As for RWRRWKHFKRPHRKHKR [Mut 98], in the data set with Pseudomonas aeruginosa, the “ratio, Mutant[Relative growth]/Orignal[Relative growth]” value is 1.183.

For the substance “d-KWRRHKHFKRPHRKHKR ([dK]WRRHKHFKRPHRKHKR; not fully specified (some residues)) [Mut 5]”, in the data set on Staphylococcus aureus, the “ratio, Mutant[Relative growth]/Orignal[Relative growth]” value amounted to 1.308.
